The record followed here is patent US8664236B2, “1H-pyrrolo[2,3 b]-pyridine derivatives” (Merck Patent GmbH, priority 2010, dated 2014).

For one data set, the target named is PDK1 (His6-PDK1(Δ1-50)) (Homo sapiens (Human), UniProt O15530). The data set can be described thus: Test for the inhibition of PDK1 (enzymatic, flashplate, 33P-ATP). Type of data set: biochemical. The method, then: 4. Test for the Inhibition of PDK1
The experimental batches are carried out in a flashplate system with 384 wells/microtitration plate.
The test substances are employed in corresponding concentrations (if desired in a dilution series). The control is carried out without test substance. The reaction is stopped using standard methods and washed. The activity of the kinase is measured via the incorporated radioactivity in top count. In order to determine the non-specific kinase reaction (blank value), the experimental batches are carried out in the presence of 100 nM staurosporine.
The radioactivity (decompositions per minute) of the blank value (no use of test substance in the presence of staurosporine) is subtracted from all other radioactivity values. The controls (kinase activity without test substance) are set equal to 100 percent and all other radioactivity values (after subtracting the blank value) are expressed set in relation thereto (for example in % of the control).

The target in data set [1] is PDK1 kinase in PC3 cells (PKB phosphorylation at Thr 308) (Homo sapiens (Human), UniProt O15530). Description: Cellular testing of PDK1 kinase inhibitors in PC3 cells (Luminex, phospho-T308-PKB). Type of data set: cell-based. The method, then: Method for the Cellular Testing of PDK1 Kinase Inhibitors in PC3 Cells
The cellular assay for the determination of the PDK1 kinase activity is carried out as a Luminex assay in the 96-well format. PC3 cells are sown at 20,000 cells per well in 100 μl of medium (45% of […]/45% of Ham's F12/10% of FCS) and incubated on the following day for 30 min with a serial dilution of the test substance (7 concentrations) under serum-free conditions. The cells are subsequently lysed using 90 μl of lysis buffer (20 mM tris/HCl pH 8.0, 150 mM NaCl, 1% of NP40, 10% of glycerol, 1% of phosphatase inhibitor I, 1% of phosphatase inhibitor II, 0.1% of protease inhibitor cocktail III, 0.01% of benzonase) per well, and the lysates are separated off from insoluble cell constituents by means of centrifugation through a 96-well filter plate (0.65 μm). The lysates are incubated overnight at 4° C. with shaking with Luminex beads to which an anti-total PKB antibody is coupled. The detection is carried out on the following day by addition of a phospho-T308-PKB antibody and a species-specific […] secondary antibody. The detection of phospho-T308-PKB is carried out by measurement in a Luminex100 instrument by determination of 100 events per cavity in a measurement time of 60 sec. […] The values of the batches treated with test substance are calculated therefrom as percentage of control, and IC50 values are determined by means of RS1.

The next data set in a line: Solubility. Format: physicochemical. The conditions noted are these: Table I.
Where [2] appears, read: Table I comparison, read-out: PDK1 inhibition assay enzymatic IC50.
Where [3] appears, read: Table I comparison, values in nM, read-out: PDK1 inhibition assay cellular IC50.
[4] abbreviates: enzymatic PDK1 inhibition assay, read-out: enzymatic IC50.
Where [5] appears, read: PKB phosphorylation at Thr 308 in PC3 cells, read-out: cellular IC50.
[6] abbreviates: Table I comparison, values given in μM, read-out: PDK1 inhibition assay cellular IC50.

Converted amounts (≈) assume the structure as drawn. Like-named read-outs stand apart in the source and are kept apart here. Where only a bound is given, the exact number is not on record here.

Sequence of PDK1 kinase in PC3 cells (PKB phosphorylation at Thr 308) (O15530 whole entry): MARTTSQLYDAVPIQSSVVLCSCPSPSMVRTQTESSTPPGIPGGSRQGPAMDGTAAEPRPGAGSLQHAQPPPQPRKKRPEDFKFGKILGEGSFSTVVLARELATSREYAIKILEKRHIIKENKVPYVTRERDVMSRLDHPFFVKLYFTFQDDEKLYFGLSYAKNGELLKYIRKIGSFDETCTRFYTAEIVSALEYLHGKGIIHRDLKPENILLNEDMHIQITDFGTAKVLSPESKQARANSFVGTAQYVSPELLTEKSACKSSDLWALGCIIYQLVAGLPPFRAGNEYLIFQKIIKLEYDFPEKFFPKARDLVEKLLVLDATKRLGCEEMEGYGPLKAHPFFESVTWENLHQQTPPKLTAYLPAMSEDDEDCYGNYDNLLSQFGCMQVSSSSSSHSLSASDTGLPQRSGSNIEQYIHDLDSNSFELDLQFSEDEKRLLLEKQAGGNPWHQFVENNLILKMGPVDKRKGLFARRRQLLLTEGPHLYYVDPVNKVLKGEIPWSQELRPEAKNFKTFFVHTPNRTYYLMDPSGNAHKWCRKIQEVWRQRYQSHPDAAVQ
Sequence of PDK1 (His6-PDK1(Δ1-50)) (O15530 51-556): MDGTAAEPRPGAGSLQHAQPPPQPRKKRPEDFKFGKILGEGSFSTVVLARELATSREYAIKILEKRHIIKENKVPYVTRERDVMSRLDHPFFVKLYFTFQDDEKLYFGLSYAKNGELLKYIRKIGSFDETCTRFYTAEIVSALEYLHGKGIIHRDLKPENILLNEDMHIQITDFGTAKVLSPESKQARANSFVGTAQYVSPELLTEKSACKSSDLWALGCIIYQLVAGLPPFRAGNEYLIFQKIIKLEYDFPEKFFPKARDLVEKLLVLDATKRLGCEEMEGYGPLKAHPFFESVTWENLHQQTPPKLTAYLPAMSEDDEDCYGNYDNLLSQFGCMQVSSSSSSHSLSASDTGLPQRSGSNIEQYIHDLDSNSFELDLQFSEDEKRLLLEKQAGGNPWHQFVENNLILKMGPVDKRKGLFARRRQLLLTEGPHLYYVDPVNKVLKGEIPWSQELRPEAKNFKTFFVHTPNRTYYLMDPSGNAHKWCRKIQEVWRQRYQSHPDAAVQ

In general, IC50 refers to the concentration needed to halve the response being measured. The solubility is how much of the substance goes into solution per volume. A low value points to little dissolved substance. `CC(C)n1cc(-c2cnc3[nH]cc(-c4cc(C(C)(O)c5ccccc5)nc(N)n4)c3c2)cn1` (stereo not drawn) [reference compound]: the IC50 on PDK1 (His6-PDK1(Δ1-50)) (setting [2]) is 54 nM; in data set [1] (setting [3]), 492 nM. For the same molecule, the solubility in “Solubility” is below 1 µg/mL.
Take `Cn1cc(-c2cnc3[nH]cc(-c4cc(C5(c6ccccc6)CCCC5)nc(N)n4)c3c2)cn1` [A6, 4-[5-(1-Methyl-1H-pyrazol-4-yl)-1H-pyrrolo[2,3-b]pyridin-3-yl]-6-(1-phenylcyclopentyl)pyrimidin-2-ylamine]: the IC50 on PDK1 (His6-PDK1(Δ1-50)) (setting [2]) is 130 nM; on PDK1 (His6-PDK1(Δ1-50)) (setting [4]), 130 nM; in data set [1] (setting [5]) it was 625 nM; in data set [1] (setting [6]) it was 625 nM. Besides, the solubility in the data set “Solubility” was below 1 µg/mL.
Consider `CC(C)n1cc(-c2cnc3[nH]cc(-c4cc(C5(O)CCCC5)nc(N)n4)c3c2)cn1` [reference compound], for which the IC50 on PDK1 (His6-PDK1(Δ1-50)) (setting [2]) stood at 61 nM; in data set [1] (setting [6]), 3500 nM. In “Solubility”, this molecule had a solubility of 8 µg/mL (≈ 19.8 µM).
The like results for `CC(=O)NCCCc1cc(-c2c[nH]c3ncc(-c4cnn(C(C)C)c4)cc23)nc(N)n1` [reference compound] were, in that order, 240 nM, above 30000 nM and above 46 µg/mL.
For `Cn1cc(-c2cnc3[nH]cc(-c4cc(N(CCO)c5ccccc5)nc(N)n4)c3c2)cn1` [A4, 2-({2-Amino-6-[5-(1-methyl-1H-pyrazol-4-yl)-1H-pyrrolo[2,3-b]-pyridin-3-yl]pyrimidin-4-yl}phenylamino)ethanol], the IC50 at PDK1 (His6-PDK1(Δ1-50)) (setting [2]) was 13 nM; at PDK1 (His6-PDK1(Δ1-50)) (setting [4]) it was 13 nM; in data set [1] (setting [5]), 250 nM; in data set [1] (setting [3]), 250 nM. This molecule gave a solubility in the data set “Solubility” of 1 µg/mL (≈ 2.34 µM).
With `CN(c1cc(-c2c[nH]c3ncc(-c4cnn(C)c4)cc23)nc(N)n1)c1ccccc1F` [A9, N4-(2-Fluorophenyl)-N4-methyl-6-[5-(1-methyl-1H-pyrazol-4-yl)-1H-pyrrolo[2,3-b]pyridin-3-yl]pyrimidine-2,4-diamine], the results for the IC50 (at PDK1 (His6-PDK1(Δ1-50)) (setting [4]); in data set [1] (setting [5])) were 9.7 nM and 27 nM, respectively.
In the case of `Cn1cc(-c2cnc3[nH]cc(-c4cc(N(CCO)c5ccccc5Cl)nc(N)n4)c3c2)cn1` [A16, 2-[{2-Amino-6-[5-(1-methyl-1H-pyrazol-4-yl)-1H-pyrrolo[2,3-b]-pyridin-3-yl]pyrimidin-4-yl}-(2-chlorophenyl)amino]ethanol], the IC50 at PDK1 (His6-PDK1(Δ1-50)) (setting [4]) worked out at 4.7 nM; in data set [1] (setting [5]) it was 2.6 nM.
`Cn1cc(-c2cnc3[nH]cc(-c4cc(N(CCCN)c5ccccc5)nc(N)n4)c3c2)cn1` [A31, N4-(3-Aminopropyl)-6-[5-(1-methyl-1H-pyrazol-4-yl)-1H-pyrrolo[2,3-b]pyridin-3-yl]-N4-phenylpyrimidine-2,4-diamine]: the IC50 was 8.7 nM at PDK1 (His6-PDK1(Δ1-50)) (setting [2]), 8.7 nM at PDK1 (His6-PDK1(Δ1-50)) (setting [4]), 6800 nM in data set [1] (setting [5]) and 6800 nM in data set [1] (setting [6]).
`Cn1cc(-c2cnc3[nH]cc(-c4cc(N(CCC(=O)O)c5ccccc5Cl)nc(N)n4)c3c2)cn1` [A23, 3-[{2-Amino-6-[5-(1-methyl-1H-pyrazol-4-yl)-1H-pyrrolo[2,3-b]-pyridin-3-yl]pyrimidin-4-yl)-(2-chlorophenyl)amino]propionic acid]: the IC50 is 4.8 nM at PDK1 (His6-PDK1(Δ1-50)) (setting [4]) and above 10000 nM in data set [1] (setting [5]).
On to `Cn1cc(-c2cnc3[nH]cc(-c4cc(N(CCO)c5ccc(F)cc5F)nc(N)n4)c3c2)cn1` [A25, 2-[{2-Amino-6-[5-(1-methyl-1H-pyrazol-4-yl)-1H-pyrrolo[2,3-b]-pyridin-3-yl]pyrimidin-4-yl)-(2,4-difluorophenyl)amino]ethanol], for which the IC50 at PDK1 (His6-PDK1(Δ1-50)) (setting [4]) amounted to 6.5 nM; in data set [1] (setting [5]) it was 35 nM.
With `Cn1cc(-c2cnc3[nH]cc(-c4cc(C5(c6ccccc6)CC5)nc(N)n4)c3c2)cn1` [A3, 4-[5-(1-Methyl-1H-pyrazol-4-yl)-1H-pyrrolo[2,3-b]pyridin-3-yl]-6-(1-phenylcyclopropyl)pyrimidin-2-ylamine], the IC50 on PDK1 (His6-PDK1(Δ1-50)) (setting [4]) came to 59.5 nM; in data set [1] (setting [5]) it was 110 nM.
On to `Cn1cc(-c2cnc3[nH]cc(-c4cc(N5CCOc6ccccc65)nc(N)n4)c3c2)cn1` [A27, 4-(2,3-Dihydrobenzo-1,4-oxazin-4-yl)-6-[5-(1-methyl-1H-pyrazol-4-yl)-1H-pyrrolo[2,3-b]pyridin-3-yl]pyrimidin-2-ylamine], for which the IC50 was 5 nM at PDK1 (His6-PDK1(Δ1-50)) (setting [4]) and above 10000 nM in data set [1] (setting [5]).
`COc1ccc(N(C[C@H](O)CO)c2cc(-c3c[nH]c4ncc(-c5cnn(C)c5)cc34)nc(N)n2)cc1` [A5, (S)-3-[{2-Amino-6-[5-(1-methyl-1H-pyrazol-4-yl)-1H-pyrrolo-[2,3-b]pyridin-3-yl]pyrimidin-4-yl}-(4-methoxyphenyl)amino]-propane-1,2-diol]: the values for the IC50 (on PDK1 (His6-PDK1(Δ1-50)) (setting [4]); in data set [1] (setting [5])) were 24 nM and 6800 nM, respectively.
For `COCC(O)CN(c1ccccc1)c1cc(-c2c[nH]c3ncc(-c4cnn(C)c4)cc23)nc(N)n1` (stereo not drawn) [A21, 1-({2-Amino-6-[5-(1-methyl-1H-pyrazol-4-yl)-1H-pyrrolo[2,3-b]-pyridin-3-yl]pyrimidin-4-yl}phenylamino)-3-methoxypropan-2-ol] the same measures were 11 nM and 520 nM.
